Results: US6051389A, “Enzyme sensor” (Radiometer Medical A/S, priority 1996, dated 2000)
Where a name gives a salt, the structure may show the parent alone.

System: lactate oxidase
Test: Enzyme Stability Test: oxalate as stabilising agent for lactate oxidase in S4932 rinse solution (Example 5)
Type: biochemical, Pediococcus
Experimental: Colorimetric lactate oxidase assay
The formation of H2 O2 is determined in a peroxidase (POD) assay system where a quinonimine dye is formed. The amount of formed quinonimine dye is determined spectrophotometically at 490 nm.
100 μL of Reagent A is added to a well of a microtiterplate (Immunoplate, Nunc, Roskilde, Denmark). The colour reaction is started by adding 100 μL of the Enzyme Solution. Immediately afterwards, the microtiterplate is placed in the plate-holder of a THERMOmax incubator (Molecular Devices, Menlo Park, Calif., USA) pre-set to: 37° C., kinetic mode, lag-time 5 min., reading time 15 min., and automix.
The enzymatic activity of lactate oxidase (and also other enzymes) is decreasing exponentially. Therefore, the half-life period (t1/2) for the enzymatic activity will be independent of the initial concentration, and, thus, t1/2 is an excellent expression for the stability of an enzyme under various conditions.
The enzymatic activity is determined (as described in the Enzyme Activity Test above) for the enzyme composition in question at least four times over a relevant period, e.g. every day for at least four days (day 0 to day 3). t1/2 is then calculated following standard mathematical methods.
A solution of 0.04 U/mL lactate oxidase in S4932 rinse solution (Radiometer Medical A/S, Copenhagen, Denmark) was prepared. Disodium oxalate corresponding to a total concentration of 1, 2, 4, 8, and 16 mM of oxalate was added. The enzymatic activity of the solutions was determined five times over a period of 13 days. The enzymatic stability of these solutions was compared with the enzymatic stability of a solution without oxalate.

Enzymatic Activity (oxalate 1 mM, time 0 h, 0.04 U/mL lactate oxidase): 13.76 mOD/min.
Enzymatic Activity (oxalate 1 mM, time 68.5 h): 11.47 mOD/min.
Enzymatic Activity (oxalate 1 mM, time 148 h): 11.01 mOD/min.
Enzymatic Activity (oxalate 1 mM, time 199 h): 9.89 mOD/min.
Enzymatic Activity (oxalate 1 mM, time 319 h): 8.67 mOD/min.
Enzymatic Activity (oxalate 2 mM, time 0 h, 0.04 U/mL lactate oxidase): 13.63 mOD/min.
Enzymatic Activity (oxalate 2 mM, time 68.5 h): 12.08 mOD/min.
Enzymatic Activity (oxalate 2 mM, time 148 h): 11.07 mOD/min.
Enzymatic Activity (oxalate 2 mM, time 199 h): 9.92 mOD/min.
Enzymatic Activity (oxalate 2 mM, time 319 h): 8.63 mOD/min.
Enzymatic Activity (oxalate 4 mM, time 0 h, 0.04 U/mL lactate oxidase): 12.87 mOD/min.
Enzymatic Activity (oxalate 4 mM, time 68.5 h): 11.90 mOD/min.
Enzymatic Activity (oxalate 4 mM, time 148 h): 11.36 mOD/min.
Enzymatic Activity (oxalate 4 mM, time 199 h): 10.36 mOD/min.
Enzymatic Activity (oxalate 4 mM, time 319 h): 9.60 mOD/min.
Enzymatic Activity (oxalate 8 mM, time 0 h, 0.04 U/mL lactate oxidase): 11.86 mOD/min.
Enzymatic Activity (oxalate 8 mM, time 68.5 h): 11.34 mOD/min.
Enzymatic Activity (oxalate 8 mM, time 148 h): 10.86 mOD/min.
Enzymatic Activity (oxalate 8 mM, time 199 h): 9.84 mOD/min.
Enzymatic Activity (oxalate 8 mM, time 319 h): 9.33 mOD/min.
Enzymatic Activity (oxalate 16 mM, time 0 h, 0.04 U/mL lactate oxidase): 10.37 mOD/min.
Enzymatic Activity (oxalate 16 mM, time 68.5 h): 10.15 mOD/min.
Enzymatic Activity (oxalate 16 mM, time 148 h): 9.72 mOD/min.
Enzymatic Activity (oxalate 16 mM, time 199 h): 8.81 mOD/min.
Enzymatic Activity (oxalate 16 mM, time 319 h): 8.65 mOD/min.
SMILES: O=C(O)C(=O)O [Oxalate, disodium oxalate]
